Measurements reported in paper PMC7659582 (Cell Reports Medicine, 2020).

Columns and labels:
[1] = FAERS disproportionality analysis; conditions: for EB05 TdP / EB05 VA / EB05 VT: FAERS Nov 1997 to March 31, 2015, EB05 > 2 = signal; for EB05 TdP: torsades de pointes; for EB05 VA: ventricular arrhythmia; for EB05 VT: ventricular tachycardia; for EB05: Table 2, values correspond to EB05 TdP of Table 1
[2] = Incidence of cardiac dysrhythmia in Truven Health MarketScan claims data; type: in vivo, human; conditions: for CD incidence / Incidence Rate per 1,000 Years: Table 2, MarketScan 2009-2014; for CD incidence: cardiac dysrhythmia cases; for Incidence Rate per 1,000 Years: cardiac dysrhythmia; for Delta from Background Rate: in vivo
[3] = cited from earlier work; for CredibleMeds: Table 2; for CredibleMeds Classification: Table 1, as of last access May 22, 2018
[4] = Table 1; cited from earlier work
hERG = hERG (Homo sapiens, UniProt Q12809)
Sequence of hERG (Q12809 whole entry): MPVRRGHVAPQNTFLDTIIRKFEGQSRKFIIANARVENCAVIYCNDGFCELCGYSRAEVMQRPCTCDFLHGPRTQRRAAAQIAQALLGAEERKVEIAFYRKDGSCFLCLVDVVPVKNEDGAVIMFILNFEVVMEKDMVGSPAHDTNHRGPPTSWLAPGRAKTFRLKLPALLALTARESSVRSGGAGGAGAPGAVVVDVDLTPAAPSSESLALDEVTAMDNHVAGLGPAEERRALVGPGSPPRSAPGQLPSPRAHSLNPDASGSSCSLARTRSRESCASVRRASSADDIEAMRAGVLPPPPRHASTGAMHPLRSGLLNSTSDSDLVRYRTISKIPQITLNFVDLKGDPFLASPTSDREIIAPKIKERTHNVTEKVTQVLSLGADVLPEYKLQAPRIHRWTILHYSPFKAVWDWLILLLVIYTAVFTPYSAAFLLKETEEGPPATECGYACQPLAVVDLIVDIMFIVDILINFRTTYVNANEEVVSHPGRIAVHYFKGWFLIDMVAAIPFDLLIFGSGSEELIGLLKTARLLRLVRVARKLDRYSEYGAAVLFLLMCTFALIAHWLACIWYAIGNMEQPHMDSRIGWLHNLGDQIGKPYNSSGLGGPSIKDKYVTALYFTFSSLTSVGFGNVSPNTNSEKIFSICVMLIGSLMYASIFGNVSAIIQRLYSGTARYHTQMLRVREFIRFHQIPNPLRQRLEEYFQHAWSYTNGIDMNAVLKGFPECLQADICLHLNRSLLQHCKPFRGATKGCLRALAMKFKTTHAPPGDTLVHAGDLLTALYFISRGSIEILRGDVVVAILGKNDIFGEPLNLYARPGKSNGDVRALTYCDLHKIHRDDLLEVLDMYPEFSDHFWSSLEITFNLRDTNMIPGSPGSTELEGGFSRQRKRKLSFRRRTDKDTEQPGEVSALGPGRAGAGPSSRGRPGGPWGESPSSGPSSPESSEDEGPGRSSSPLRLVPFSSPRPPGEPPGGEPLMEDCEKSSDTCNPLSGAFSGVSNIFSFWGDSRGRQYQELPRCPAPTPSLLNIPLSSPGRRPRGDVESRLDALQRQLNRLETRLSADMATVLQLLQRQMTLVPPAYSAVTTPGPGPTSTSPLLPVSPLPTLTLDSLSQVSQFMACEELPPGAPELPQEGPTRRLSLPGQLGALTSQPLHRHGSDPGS

## COc1ccc(CCN(C)CCCC(C#N)(c2ccc(OC)c(OC)c2)C(C)C)cc1OC (centres unmarked)
[1]
  EB05 TdP: 3.426
  EB05 VA: 2.104
  EB05 VT: 2.381

## CC(C)NCC(O)c1ccc(NS(C)(=O)=O)cc1 (racemic) [DL-SOTALOL]
[2]
  CD incidence: 13,186
  Incidence Rate per 1,000 Years: 124.65 per 1,000 Years
  Delta from Background Rate: 101.65
[1]
  EB05 TdP: 70.355
  EB05 VA: 14.276
  EB05 VT: 18.029
  EB05: 70.36

## CCCCc1oc2ccccc2c1C(=O)c1cc(I)c(OCCN(CC)CC)c(I)c1 [AMIODARONE]
[2]
  CD incidence: 21,788
  Incidence Rate per 1,000 Years: 162.2 per 1,000 Years
  Delta from Background Rate: 139.2
[3]
  CredibleMeds: risk of TdP
[1]
  EB05: 21.35

## COc1ccc(CCN2CCC(Nc3nc4ccccc4n3Cc3ccc(F)cc3)CC2)cc1 [ASTEMIZOLE]
[4]
  CiPA Classification: intermediate
[3]
  CredibleMeds Classification: risk of TdP
[1]
  EB05 TdP: 18.549
  EB05 VA: 1.965
  EB05 VT: 15.499

## CN1CCN(CCCCN2C(=O)CN(/N=C/c3ccc(-c4ccc(Cl)cc4)o3)C2=O)CC1 [AZIMILIDE]
hERG
  hERG IC50/Free Cmax Ratio: 11.50
[4]
  CiPA Classification: high
[1]
  EB05 TdP: 94.351
  EB05 VT: 1.381

## CC(C)COCC(CN(Cc1ccccc1)c1ccccc1)N1CCCC1 (centres unmarked) [BEPRIDIL]
[4]
  CiPA Classification: high
[3]
  CredibleMeds Classification: risk of TdP
[1]
  EB05 TdP: 81.663
  EB05 VA: 5.155
  EB05 VT: 38.276

## CN(C)CCCN1c2ccccc2Sc2ccc(Cl)cc21 [CHLORPROMAZINE]
[4]
  CiPA Classification: intermediate
[3]
  CredibleMeds Classification: risk of TdP
[1]
  EB05 TdP: 5.483
  EB05 VA: 0.679
  EB05 VT: 1.78

## COc1cc(N)c(Cl)cc1C(=O)NC1CCN(CCCOc2ccc(F)cc2)CC1OC (centres unmarked) [CISAPRIDE]
[4]
  CiPA Classification: intermediate
[3]
  CredibleMeds Classification: risk of TdP
[1]
  EB05 TdP: 30.654
  EB05 VA: 5.117
  EB05 VT: 21.801

## CC[C@H]1OC(=O)[C@H](C)[C@@H](O[C@H]2C[C@@](C)(OC)[C@@H](O)[C@H](C)O2)[C@H](C)[C@@H](O[C@@H]2O[C@H](C)C[C@H](N(C)C)[C@H]2O)[C@](C)(OC)C[C@@H](C)C(=O)[C@H](C)[C@@H](O)[C@]1(C)O [CLARITHROMYCIN]
hERG
  hERG IC50/Free Cmax Ratio: 77.41
[4]
  CiPA Classification: intermediate
[3]
  CredibleMeds Classification: risk of TdP
[1]
  EB05 TdP: 7.69
  EB05 VA: 1.898
  EB05 VT: 3.016

## CN1CCN(C2=Nc3cc(Cl)ccc3Nc3ccccc32)CC1 [CLOZAPINE]
[1]
  EB05 TdP: 0.191
  EB05 VA: 0.372
  EB05 VT: 0.291

## CN(C)CC(c1ccc(O)cc1)C1(O)CCCCC1 (centres unmarked) [DESVENLAFAXINE]
[2]
  CD incidence: 2,222
  Incidence Rate per 1,000 Years: 8.26 per 1,000 Years
  Delta from Background Rate: −14.74
[1]
  EB05: 0.13

## COc1ccc([C@@H]2Sc3ccccc3N(CCN(C)C)C(=O)[C@@H]2OC(C)=O)cc1 [DILTIAZEM]
[1]
  EB05 TdP: 2.62
  EB05 VA: 0.925
  EB05 VT: 1.443

## CN(CCOc1ccc(NS(C)(=O)=O)cc1)CCc1ccc(NS(C)(=O)=O)cc1 [DOFETILIDE]
[2]
  CD incidence: 2,749
  Incidence Rate per 1,000 Years: 157.58 per 1,000 Years
  Delta from Background Rate: 134.58
[3]
  CredibleMeds: risk of TdP
[1]
  EB05 TdP: 20.983
  EB05 VA: 6.235
  EB05: 20.98

## O=c1[nH]c2ccccc2n1CCCN1CCC(n2c(=O)[nH]c3cc(Cl)ccc32)CC1 [DOMPERIDONE]
[1]
  EB05 TdP: 18.85
  EB05 VA: 1.455
  EB05 VT: 1.468

## O=C(CCCN1CC=C(n2c(=O)[nH]c3ccccc32)CC1)c1ccc(F)cc1 [DROPERIDOL]
[4]
  CiPA Classification: intermediate
[3]
  CredibleMeds Classification: risk of TdP
[1]
  EB05 TdP: 19.454
  EB05 VA: 2.899
  EB05 VT: 4.564

## O=C(NCC1CCCCN1)c1cc(OCC(F)(F)F)ccc1OCC(F)(F)F (centres unmarked) [FLECAINIDE]
[2]; compared with the aggregated value, subgroups by age, gender, comorbidity index
  rate of CD incidence, each patient subgroup: > 23.0
[1]
  EB05 VA: 4.123
  EB05 VT: 20.567

## CCCCCCCN(CC)CCCC(O)c1ccc(NS(C)(=O)=O)cc1 (centres unmarked) [IBUTILIDE]
[4]
  CiPA Classification: high
[3]
  CredibleMeds Classification: risk of TdP
[1]
  EB05 TdP: 218.45
  EB05 VA: 2.901
  EB05 VT: 101.022

## CCOC(=O)N1CCC(=C2c3ccc(Cl)cc3CCc3cccnc32)CC1 [LORATADINE]
[2]
  CD incidence: 2,016
  Incidence Rate per 1,000 Years: 13.07 per 1,000 Years
  Delta from Background Rate: −9.93
[4]
  CiPA Classification: very low
[1]
  EB05 TdP: 4.873
  EB05 VA: 0.583
  EB05 VT: 3.043
  EB05: 4.87

## CCC(=O)C(CC(C)N(C)C)(c1ccccc1)c1ccccc1 (centres unmarked) [METHADONE]
[2]
  CD incidence: 1,662
  Incidence Rate per 1,000 Years: 19.73 per 1,000 Years
  Delta from Background Rate: −3.27
[3]
  CredibleMeds: risk of TdP
[1]
  EB05 TdP: 36.408
  EB05 VA: 1.87
  EB05 VT: 3.998
  EB05: 36.41

## COCCc1ccc(OCC(O)CNC(C)C)cc1 (centres unmarked) [METOPROLOL]
[1]
  EB05 TdP: 3.176
  EB05 VA: 1.955
  EB05 VT: 3.318

## Cc1cccc(C)c1OCC(C)N (centres unmarked) [MEXILETINE]
[2]
  CD incidence: 1,250
  Incidence Rate per 1,000 Years: 280.45 per 1,000 Years
  Delta from Background Rate: 257.45
hERG
  hERG IC50/Free Cmax Ratio: 130.11
[4]
  CiPA Classification: very low
[1]
  EB05: 2.65

## COC(=O)C1=C(C)NC(C)=C(C(=O)OC)C1c1ccccc1[N+](=O)[O-] [NIFEDIPINE]
[1]
  EB05 VT: 0.42

## CCOC(=O)C1=C(C)NC(C)=C(C(=O)OC)C1c1cccc([N+](=O)[O-])c1 (centres unmarked) [NITRENDIPINE]
hERG
  hERG IC50/Free Cmax Ratio: 50345
[4]
  CiPA Classification: very low
[1]
  EB05 TdP: 0.618
  EB05 VT: 0.228

## Cc1nccn1CC1CCc2c(c3ccccc3n2C)C1=O (centres unmarked) [ONDANSETRON]
[4]
  CiPA Classification: intermediate
[3]
  CredibleMeds Classification: risk of TdP
[1]
  EB05 TdP: 15.333
  EB05 VA: 1.281
  EB05 VT: 6.395

## Cc1nc2n(c(=O)c1CCN1CCC(c3noc4cc(F)ccc34)CC1)CCCC2O (centres unmarked) [PALIPERIDONE]
[2]
  CD incidence: 119
  Incidence Rate per 1,000 Years: 10.13 per 1,000 Years
  Delta from Background Rate: −12.87
[3]
  CredibleMeds: possible risk of TdP
[1]
  EB05: 0.57

## O=c1[nH]c2ccccc2n1C1CCN(CCCC(c2ccc(F)cc2)c2ccc(F)cc2)CC1 [PIMOZIDE]
[4]
  CiPA Classification: intermediate
[3]
  CredibleMeds Classification: risk of TdP
[1]
  EB05 TdP: 17.093
  EB05 VA: 0.25
  EB05 VT: 2.332

## CCCNCC(O)COc1ccccc1C(=O)CCc1ccccc1 (centres unmarked) [PROPAFENONE]
[2]
  CD incidence: 6,643
  Incidence Rate per 1,000 Years: 135.17 per 1,000 Years
  Delta from Background Rate: 112.17
[1]
  EB05: 3.38

## C=C[C@H]1C[N@@]2CC[C@H]1C[C@@H]2[C@@H](O)c1ccnc2ccc(OC)cc12 [QUINIDINE]
[2]
  CD incidence: 421
  Incidence Rate per 1,000 Years: 87.75 per 1,000 Years
  Delta from Background Rate: 64.75
[3]
  CredibleMeds: risk of TdP
[1]
  EB05 TdP: 35.667
  EB05 VA: 2.768
  EB05 VT: 12.296
  EB05: 35.67

## COc1ccccc1OCC(O)CN1CCN(CC(=O)Nc2c(C)cccc2C)CC1 (centres unmarked) [RANOLAZINE]
[4]
  CiPA Classification: very low
[3]
  CredibleMeds Classification: conditional risk of TdP
[1]
  EB05 TdP: 22.444
  EB05 VA: 0.205
  EB05 VT: 4.375

## Cc1nc2n(c(=O)c1CCN1CCC(c3noc4cc(F)ccc34)CC1)CCCC2 [RISPERIDONE]
[2]
  CD incidence: 4,066
  Incidence Rate per 1,000 Years: 18.47 per 1,000 Years
  Delta from Background Rate: −4.53
[4]
  CiPA Classification: intermediate
[3]
  CredibleMeds Classification: possible risk of TdP
  CredibleMeds: possible risk of TdP
[1]
  EB05 TdP: 1.257
  EB05 VA: 0.543
  EB05 VT: 0.706
  EB05: 1.26

## CC/C(=C(\c1ccccc1)c1ccc(OCCN(C)C)cc1)c1ccccc1 [TAMOXIFEN]
[1]
  EB05 TdP: 0.077
  EB05 VA: 0.06
  EB05 VT: 0.172

## CC(C)(C)c1ccc(C(O)CCCN2CCC(C(O)(c3ccccc3)c3ccccc3)CC2)cc1 (centres unmarked) [TERFENADINE]
[4]
  CiPA Classification: intermediate
[3]
  CredibleMeds Classification: risk of TdP
[1]
  EB05 TdP: 24.417
  EB05 VA: 3.085
  EB05 VT: 9.397

## COc1cc2c(Nc3ccc(Br)cc3F)ncnc2cc1OCC1CCN(C)CC1 [VANDETANIB]
[4]
  CiPA Classification: high
[3]
  CredibleMeds Classification: risk of TdP
[1]
  EB05 TdP: 0.546
